Measured values reported in patent US5998654A, “Retinoic acid receptor antagonist compounds and methods” (Ligand Pharmaceuticals Incorporated, priority 1997, dated 1999).

Legend:
RARγ = biological target: T1, RARγ (Homo sapiens, UniProt P13631); experiment: co-transfection assay, antagonist activity on RARγ; assay type: cell-based; set-up: expressed in transfected cells; host or cells: CV-1 cells (African green monkey kidney); details: CV-1 cells, in presence of known RAR agonist TTNPB; for IC50: read-out: IC50 antagonist potency, RARγ
T1 sequence (P13631 1-454): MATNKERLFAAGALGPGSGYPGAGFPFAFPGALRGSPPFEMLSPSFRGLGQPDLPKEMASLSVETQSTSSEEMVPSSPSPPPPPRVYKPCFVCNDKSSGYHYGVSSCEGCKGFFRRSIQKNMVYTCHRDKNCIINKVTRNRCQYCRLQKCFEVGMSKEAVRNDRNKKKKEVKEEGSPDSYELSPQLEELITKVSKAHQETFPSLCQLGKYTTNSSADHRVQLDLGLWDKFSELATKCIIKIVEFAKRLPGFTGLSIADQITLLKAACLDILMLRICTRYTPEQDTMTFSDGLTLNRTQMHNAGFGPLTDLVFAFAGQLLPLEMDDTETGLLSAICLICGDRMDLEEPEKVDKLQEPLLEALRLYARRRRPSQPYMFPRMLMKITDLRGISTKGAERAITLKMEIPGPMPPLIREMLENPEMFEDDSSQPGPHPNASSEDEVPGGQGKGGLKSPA
Excerpt: (§1) This assay is described in further detail in U.S. Pat. Nos. 4,981,784 and 5,071,773, the disclosures of which are incorporated herein by reference.
(§2) In the co-transfection assay, a cloned cDNA for an IR (e.g., human RARα:, RARβ, RXRγ) under the control of a constitutive promoter (e.g., the SV 40 promoter) is introduced by transfection (a procedure to induce cells to take up foreign genes) into a background cell substantially devoid of endogenous IRs. This introduced gene directs the recipient cells to make the IR protein of interest. A second gene is also introduced (co-transfected) into the same cells in conjunction with the IR gene. This second gene, comprising the cDNA for a reporter protein, such as firefly luciferase (LUC), is controlled by an appropriate hormone responsive promoter containing a hormone response element (HRE). This reporter plasmid functions as a reporter for the transcription-modulating activity of the target IR. Thus, the reporter acts as a surrogate for the products (mRNA then protein) normally expressed by a gene under control of the target receptor and its native hormone.
(§3) The co-transfection assay can detect small molecule agonists or antagonists of target IRs. Exposing the transfected cells to an agonist ligand compound increases reporter activity in the transfected cells. This activity can be conveniently measured, e.g., by increasing luciferase production, which reflects compound-dependent, IR-mediated increases in reporter transcription. To detect antagonists, the co-transfection assay is carried out in the presence of a constant concentration of an agonist to the target IR (e.g., all-trans retinoic acid for RARα) known to induce a defined reporter signal. Increasing concentrations of a suspected antagonist will decrease the reporter signal (e.g., luciferase production). The co-transfection assay is therefore useful to detect both agonists and antagonists of specific IRs. Furthermore, it determines not only whether a compound interacts with a particular IR, but whether this interaction mimics (agonizes) or blocks (antagonizes) the effects of the native regulatory molecules on target gene expression, as well as the specificity and strength of this interaction.
(§4) CV-1 cells (African green monkey kidney fibroblasts) were cultured in the presence of Dulbecco's Modified Eagle Medium (DMEM) supplemented with 10% charcoal resin-stripped fetal bovine serum then transferred to 96-well microtiter plates one day prior to transfection.
(§5) To determine RAR and/or RXR agonist activity of the compounds of the present invention, the CV-1 cells were transiently transfected by calcium phosphate coprecipitation according to the procedure of Berger et al., 41 J. Steroid Biochem. Mol. Biol., 733 (1992) with the following receptor expressing plasmids: pRShRARα: Giguere et al., 330 Nature, 624 (1987); pRShRARβ and pRShRARγ, Ishikawa et al., 4 Mol. Endocrin., 837 (1990); pRShRXRα, Mangelsdorf et al., 345 Nature, 224 (1990); and pRSmRXRβ and pRSmRXRγ, Mangelsdorf et al., 6 Genes & Devel., 329 (1992), the disclosures of which are herein incorporated by reference. Each of these receptor expressing plasmids was co-transfected at a concentration of 5 ng/well, along with a basal reporter plasmid at 100 ng/well, the internal control plasmid pRS-β-Gal at 50 ng/well and filler DNA, pGEM at 45 ng/well.
(§6) The basal reporter plasmid D-MTV-LUC (Hollenberg and Evans, 55 Cell, 899 (1988), the disclosure of which is herein incorporated by reference) containing two copies of the TRE-palindromic response element described in Umesono et al., 336 Nature, 262 (1988), the disclosure of which is herein incorporated by reference, was used in transfections for the RARs, and the reporter plasmid CRBPIIFKLUC, which contains an RXRE (retinoid X receptor response element, as described in Mangelsdorf et al., 66 Cell, 555 (1991), the disclosure of which is herein incorporated by reference), was used in transfections for the RXRs.

RARβ = biological target: T2, RARβ (Homo sapiens, UniProt P10826); experiment: co-transfection assay, antagonist activity on RARβ; assay type: cell-based; set-up: expressed in transfected cells; host or cells: CV-1 cells (African green monkey kidney); details: CV-1 cells, in presence of known RAR agonist TTNPB; for IC50: read-out: IC50 antagonist potency, RARβ
T2 sequence (P10826 1-448 isoform P10826-2): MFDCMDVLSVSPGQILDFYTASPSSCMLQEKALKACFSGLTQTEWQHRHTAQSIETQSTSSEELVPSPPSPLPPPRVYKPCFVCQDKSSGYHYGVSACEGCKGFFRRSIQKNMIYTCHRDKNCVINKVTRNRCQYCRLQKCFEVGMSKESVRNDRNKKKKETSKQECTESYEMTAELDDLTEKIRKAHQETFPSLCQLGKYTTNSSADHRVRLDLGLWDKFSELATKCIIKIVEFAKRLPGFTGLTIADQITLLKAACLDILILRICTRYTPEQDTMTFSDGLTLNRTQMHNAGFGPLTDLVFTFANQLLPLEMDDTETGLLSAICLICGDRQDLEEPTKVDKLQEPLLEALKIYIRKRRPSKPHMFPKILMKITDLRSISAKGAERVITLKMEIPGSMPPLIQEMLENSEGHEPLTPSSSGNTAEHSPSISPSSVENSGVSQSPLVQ
Excerpt: as §1, §2, §3, §4, §5, §6

SMILES	efficacy of antagonist, % of maximal inhibition, RARγ (in parentheses after IC50) (RARγ)	IC50 (RARγ)	efficacy of antagonist, % of maximal inhibition, RARβ (in parentheses after IC50) (RARβ)	IC50 (RARβ)
CCCCOc1c(C(C)(C)C)cc(/C(C)=C/C=C/C(C)=C/C(=O)O)cc1C(C)(C)C [Compound 7, 2E, 4E, 6E-[7-(3,5-Di-t-butyl-4-n-butoxyphenyl)-3-methyl]-octa-2,4,6-trienoic acid]	91%	2 nM	85%	4 nM
CCCOc1c(C(C)(C)C)cc(/C(C)=C/C=C/C(C)=C/C(=O)O)cc1C(C)(C)C [Compound 8, 2E, 4E, 6E-[7-(3,5-Di-t-butyl-4-n-propoxyphenyl)-3-methyl]-octa-2,4,6-trienoic acid]	85%	3 nM	85%	1 nM
CCCCCOc1c(C(C)(C)C)cc(/C(C)=C/C=C/C(C)=C/C(=O)O)cc1C(C)(C)C [Compound 9, 2E, 4E, 6E-[7-(3,5-Di-t-butyl-4-n-pentoxyphenyl)-3-methyl]-octa-2,4,6-trienoic acid]	80%	5 nM	86%	17 nM
C=C(c1ccccc1)c1cc(/C(C)=C/C=C/C(C)=C/C(=O)O)cc(C(C)(C)C)c1 [Compound 17, (2E,4E,6E)-7-[3-t-butyl-5-(1-phenyl-vinyl)-phenyl]-3-methyl-octa-2,4,6-trienoic acid]	85%	2 nM	90%	5 nM
